# Experiments:
# [1] = test system: TLR3; test: Inhibition of IFN-β- or dsRNA transfection-increased TLR3, PKR, MHC class I RNA in FRTL-5 thyrocytes (Northern/PCR); assay type: cell-based, rat; settings: for % TLR3 Inhibition vs Control: 3 replicates
# Protocol: FIG. 4. Phenylmethimazole (C10) and Methimazole (MMI) inhibit the ability of IFN-β to increase TLR3, PKR, and MHC class I RNA levels in FRTL-5 thyrocytes. Cells were incubated with or without 100 U/ml of IFN-β for 3 hours in the presence of dimethyl sulfoxide (DMSO), C10, or MMI. DMSO is the vehicle control. Northern blots were performed with 20 ug of total RNA to detect TLR 3, PKR, MHC I, and GAPDH using radiolabeled cDNA probes. Data are representative of multiple experiments. As was the case for Poly (I:C) transfection in FIG. 2B, IFN-β increased TLR3.
# We evaluated the ability of C10 and MMI to inhibit TLR3 expression and signaling. C10 prevented the ability of dsRNA transfection and incubation with IFN-β to increase TLR3RNA levels in FRTL-5 cells, as measured by PCR (FIG. 4A). […] DMSO is the vehicle for C10 because of the hydrophobicity of C10; it had no significant effect on basal activity and was used as the control value in all experiments described herein.
# The C-10 and MMI reduced the ability of IFN-β to increase PKR and MHC class I RNA levels, albeit relatively less than TLR3 (FIG. 4B). […] We questioned the C10 mechanism of action.
# RNA Isolation and Northern Analysis. […] .
# RT-PCR. DNA was removed from total RNA using the DNA-free Kit (Ambion) according to the manufacturer's instructions. One μg of RNA was used to synthesize cDNA using the Advantage RT-for-PCR Kit (BD Biosciences) according to the manufacturer's protocol. Fifty ng of cDNA was subsequently used for PCR of TLR-3, and β-Actin; 250 ng of cDNA was used for PCR of IFN-β. The primers used for amplification of human TLR-3 and β-Actin have been previously described (K. U. Saikh, et al., Clin Diagn Lab Immunol, 10:1065-73 (2003)).
# [2] = test system: horses; test: Horses operated to remove necrotic bowel; assay type: in vivo, horse; settings: 2 mg/kg C10 pre-op and post-op for three days, plus antibiotics
# Protocol: Effect of Phenylmethimazole (C10) on horses subjected to operative procedures to repair necrotic bowels: A group of animals were also subjected to an operative procedure that clamped vessels in a small portion of bowel. Within 2 days, bowel necrosis and peritonitis ensued. At that point animals were re-operated to remove the necrotic bowel and treated with 2 mg/kg C10 or DMSO alone pre-op and post-op for three days. […] Both groups had the same antibiotic therapy as used above.
# [3] = test system: mice; test: Colitis model in mice (DSS); assay type: in vivo, mouse; settings: 10 animals, 0.1 mg/kg, 14 days
# [4] = test system: IRF-3; test: IRF-3 transactivation cis reporter in FRTL-5 thyrocytes; assay type: cell-based, rat; settings: FRTL-5, 6 hours, 0.5 mM C-10
# Protocol: FIG. 5. Phenylmethimazole (CIO) and Methimazole (MMI) inhibit the ability of Poly (I:C), lipopolysaccharide (LPS) and IL-1β to increase IFN-β gene expression (Top Left) and IRF-3 transactivation (Top Right) in FRTL-5 thyrocytes. (Top Left) Cells were co-transfected with IFNβ-Luc and control vector (pRLTk-Int), then treated with or without (−) Poly (I:C) (100 μg/ml), LPS (100 ng/ml), or IL-1β (10 ng/ml) in the presence of the vehicle (DMSO) alone (−), C10, or MMI for 6 hours. Data was obtained with the Dual Luciferase Assay system. (Top Right) Cells were co-transfected with Gal4 DBD/IRF-3 and Gal4-Luc then treated with nothing (−), poly (I:C), LPS, or IL-1β as in (Top Left) in the presence of DMSO or C10 for 6 hours. Data was obtained by Luciferase assay. Also shown is a graphic depiction (Bottom) of how the cis reporting system is working. Data are representative of multiple experiments.
# We measured the ability of C10 to inhibit IRF-3 transactivation activity in FRTL-5 thyrocytes, using the IRF-3 cis reporter system (FIG. 5, bottom).
# Plasmids for Reporter Gene Assays. Human IRF-3 was amplified from human cDNA and cloned into pCR 2.1 by the TOPO/TA (Invitrogen, Carlsbad, Calif.) cloning method, and then sequenced. IRF-3 was then excised by EcoRI digestion and subcloned into pCMV-BD (Stratagene, La Jolla, Calif.) for use in transactivation assays. […]
smiles,measurement,setting,value
"Cn1c(-c2ccccc2)cnc1S [Compound C10, 5-Phenylmethimazole]",decrease of TLR3 and IFN-β-mRNA levels in thyrocytes vs solutions with DMSO,[1]; C10 stored in aqueous cyclodextrin preparation for 6 weeks prior to use,equally effective
same,IFN-β increased MHC class I and PKR mRNA levels,"[1]; FRTL-5, 100 U/ml IFN-β 3 hours",significantly decreased
same,IFN-β-increased TLR3 RNA levels,"[1]; FRTL-5, 100 U/ml IFN-β 3 hours, C10 0.5 mM, MMI 5 mM",totally prevented
same,IFN-β increased MHC class I and PKR mRNA levels,"[1]; FRTL-5, 100 U/ml IFN-β 3 hours, listed as C-10",reduced
same,basal level of TLR 3 mRNA,"[1]; FRTL-5, no IFN-β",slightly reduced
same,% TLR3 Inhibition vs Control,"[1]; IFN-β increased TLR3 RNA, C10 0.1 mM in Excip.",90%
same,% TLR3 Inhibition vs Control,"[1]; dsRNA increased TLR3 RNA, C10 0.1 mM in DMSO",90%
same,recovery after operation to remove necrotic bowel,[2],full recovery in all cases
same,Survival % of Control,[3]; Ip freshly diluted in DMSO,100%
same,Survival % of Control,[3]; Oral stored in excipient 1 week,100%
same,"IRF-3 transactivation by poly (I:C), LPS, or IL-1β",[4],inhibited
